Tests used:
HCT 116 (colon) cells = test: Anti-cancer screen (MTT), HCT 116; format: cell-based; details: Homo sapiens, HCT-116, HCT116, 48 hours, MTT; for GI50: read-out: Cell growth inhibition HCT116 (Colon) GI50; for CC50: read-out: Cell growth inhibition HCT116 (Colon) LC50; for IC (TGI): read-out: Cell growth inhibition HCT116 (Colon) TGI
Protocol: (§1) Experimental drugs were screened for anti-cancer activity in three cell lines using five concentrations for each compound. The cell lines —HCT 116 (colon), NCIH460 (lung) and U251 (glioma) were maintained in DMEM containing 10% fetal bovine serum. 96-well microtiter plates are inoculated with cells in 100 μL of cell suspension (5×10^4 cells/mL) for 24 hours at 37° C., 5% CO2, 95% air and 100% relative humidity. A separate plate with these cell lines is also inoculated to determine cell viability before the addition of the compounds (T0).
(§2) Following 24-hours incubation, test compounds were added to the 96 well plates. Each plate contains one of the above cell lines and the following samples in triplicate: five different dilutions (0.01, 0.1, 1, 10 and 100 μM) of four test compounds, appropriate dilutions of a cytotoxic standard and growth medium (untreated) wells. Test compounds were dissolved in DMSO to prepare 20 mM stock solutions on the day of drug addition and serial dilutions were carried out in complete growth medium at 2× strength such that 100 μL added to wells gave final concentrations (0.01, 0.1, 1, 10 and 100 μM) in the well. SAHA was used as standard drug in these experiments.
(§3) For T0 measurement, 24 hours after seeding the cells, 20 μL of 3-(4,5-dimethyl-2-thiazolyl)-2,5-diphenyl-2H-tetrazolium (MTT) solution per well was added to the ‘T0’ plate and incubated for 3 hours at 37° C. in a CO2 incubator. The plate containing cells and test compounds was treated similarly after 48 hours of incubation. After 3 hours of MTT addition, well contents were aspirated carefully followed by addition of 150 μL DMSO per well. Plates were agitated to ensure dissolution of the formazan crystals in DMSO and absorbance was read at 570 nm (A570).
(§4) (Mosmann T. Rapid colorimetric assay for cellular growth and survival: application to proliferation and cytotoxicity assays. J Immunol Methods 1983; 65(1-2): 55-63; Anne Monks et al. Feasibility of high-flux anticancer drug screen using a diverse panel of cultured human tumor cell lines”. JNCI, Vol. 83, No. 11, 1991).

[1] = tested on: HDAC (Mouse Liver Extract); test: HDAC inhibition assay using Boc-Lys(Ac)-AMC substrate; format: biochemical; details: mouse liver enzyme
Protocol: Inhibition of HDAC has been implicated to modulate transcription and to induce apoptosis or differentiation in cancer cells. The fluorometric assay provides a fast and fluorescence based method that eliminates radioactivity, extractions or chromatography, as used in traditional assays. The assay is based on two steps. First, the HDAC fluorometric substrate, which comprises an acetylated lysine side chain, is incubated with a sample containing HDAC activity (Mouse Liver Extract). Deacetylation of the substrate sensitizes the substrate, in the second step; treatment with the Trypsin stop solution produces a fluorophore that can be easily analyzed using fluorescence plate reader. Assay was done in 96-well black microplate and total volume of the assay was […]. […] The plate was pre-incubated at 37° C. for 5 minutes. […] The plate was incubated at 37° C. for 30 min. The reaction was stopped by adding 100 μL, of Trypsin stop solution and incubating at 37° C. for 15-30 min. Measuring the fluorescence at excitation wavelength of 360 nm and emission wavelength of 460 nm monitored the release of AMC. Buffer alone and substrate alone served as blank. […] (Dennis Wegener et al, Anal. Biochem, 321, 2003, 202-208).

NCIH460 (lung) cells = test: Anti-cancer screen (MTT), NCIH460; format: cell-based; details: Homo sapiens, NCI-H460, NCIH460, 48 hours, MTT; for GI50: read-out: Cell growth inhibition NCIH460 (Lung) GI50; for LC50: read-out: Cell growth inhibition NCIH460 (Lung) LC50; for IC (TGI): read-out: Cell growth inhibition NCIH460 (Lung) TGI
Protocol: as §1, §2, §3, §4

[2] = tested on: NCIH460, HCT116 and U251 cells; test: Anti-cancer screen, mean GI50 over cell lines; format: cell-based; details: mean over cell lines; read-out: Cell growth inhibition Mean GI50
Protocol: as §1, §2, §3, §4

Structure (SMILES) | GI50 (HCT 116 (colon) cells) | CC50 (HCT 116 (colon) cells) | IC (TGI) (HCT 116 (colon) cells) | HDAC inhibition % (1 μM) [1] | HDAC inhibition % (10 μM) [1] | GI50 (NCIH460 (lung) cells) | LC50 (NCIH460 (lung) cells) | IC (TGI) (NCIH460 (lung) cells) | GI50 [2] | IC50 [1]
Nc1ccccc1NC(=O)c1ccc(CNC(=O)/C(=C/c2ccc(F)c(C(F)(F)F)c2)c2ccc([N+](=O)[O-])cc2)cc1 [Compound 5, N-(2-Aminophenyl)-4-((3-(4-fluoro-3-trifluoromethylphenyl)-2-(4-nitrophenyl)acrylamido)methyl)benzamide] | 3.1 µM | > 100 µM | 11 µM | 0.0% | −27.4% | 5.5 µM | > 100 µM | > 100 µM | 4.3 µM | 
Nc1ccccc1NC(=O)c1ccc(CNC(=O)/C(=C/C2CC2)c2ccc(F)cc2)cc1 [Compound 14, N-(2-Aminophenyl)-4-((3-(cyclopropyl)-2-(4-fluorophenyl)acrylamido)methyl)benzamide] | 5.6 µM | 81 µM | 24 µM | 22.8% | 31.6% | 8 µM | 82 µM | 49 µM | 6.8 µM | 
Nc1ccccc1NC(=O)c1ccc(CNC(=O)/C(=C/c2ccncc2)c2ccc(F)cc2)cc1 [Compound 15, N-(2-Aminophenyl)-4-((3-(pyridin-4-yl)-2-(4-fluorophenyl)acrylamido)methyl)benzamide] | 2.7 µM | 94 µM | 30 µM | 42.7% | 56.9% | 8.8 µM | 95 µM | 60 µM | 5.8 µM | 3.8 µM
COc1ccc(/C(=C\c2ccc(SC)cc2)C(=O)NCc2ccc(C(=O)Nc3ccccc3N)cc2)cc1 [Compound 16, N-(2-Aminophenyl)-4-((3-(4-methylthiophenyl)-2-(4-methoxyphenyl)acrylamido)methyl)benzamide] | 40 µM | > 100 µM | 82 µM | 30.7% | 46.0% | 45 µM | > 100 µM | 97 µM | 42.5 µM | 
COc1cc(/C=C(/C(=O)NCc2ccc(C(=O)Nc3ccccc3N)cc2)c2ccc(F)cc2)cc(OC)c1 [Compound 17, N-(2-Aminophenyl)-4-((3-(3,5-dimethoxyphenyl)-2-(4-fluorophenyl)acrylamido)methyl)benzamide] | 29 µM | > 100 µM | 69 µM | 25.7% | 20.3% | 38 µM | > 100 µM | 80 µM | 33.5 µM | 
Nc1ccccc1NC(=O)c1ccc(CNC(=O)/C(=C/c2ccnc3ccccc23)c2ccc(F)cc2)cc1 [Compound 22, N-(2-Aminophenyl)-4-((3-(quinolin-4-yl)-2-(4-fluorophenyl)acrylamido)methyl)benzamide] | 7.9 µM | > 100 µM | 70 µM | 32.9% | 56.1% | 7.6 µM | > 100 µM | 80 µM | 7.8 µM | 3.2 µM
COc1ccc(/C(=C\c2ccc(OC)c(OC)c2)C(=O)NCc2ccc(C(=O)Nc3ccccc3N)cc2)cc1 [Compound 27, N-(2-Aminophenyl)-4-((3-(3,4-dimethoxyphenyl)-2-(4-methoxyphenyl)acrylamido)methyl)benzamide] | 0.4 µM | > 100 µM | > 100 µM | 37.1% | 47.2% | 2.1 µM |  | > 100 µM | 1.2 µM | 
CSc1ccc(/C=C(/C(=O)NCc2ccc(/C=C/C(=O)NO)cc2)c2ccc(F)cc2)cc1 [Compound 76, (1E)-N-(4-(3-(Hydroxyamino)-3-oxoprop-1-enyl)benzyl)-2-(4-fluorophenyl)-3-(4-methylthiophenyl)acrylamide] | 5 µM | > 100 µM | 60 µM | 42.6% | 89.8% | 4.2 µM | > 100 µM | 42.5 µM | 4.6 µM | 0.06 µM

Reference: patent US8476255B2, “Histone deacetylase inhibitors” (Orchid Chemicals & Pharmaceuticals Limited, priority 2007, dated 2013)
